The target of the assay is T1, AM1R (Homo sapiens, UniProt O60895+Q16602).
T1 construct: EYFP; ECFP; expressed in transfected cells; host or cells: HEK-293 (transient co-transfection)
The assay is described as follows: Activity determination in vitro: cAMP/CRE-luciferase reporter assay in HEK293 cells transiently co-transfected with CLR and RAMP2. It counts as cell-based. The note with it: for Emax: HEK293, normalized to [G14]ADM(14-52); for EC50: HEK293 with CLR/RAMP2, CRE-luciferase, 3 h stimulation. As for the experimental part:
(1a) Activity Determination of Adrenomedullin Analogues in vitro
Cell Culture HEK-293 cells (human embryonic kidney cells) were cultured in Ham's F-12/DMEM (1/1; v/v) containing 15% FCS under humidified atmosphere at 37° C. and 5% CO2 in 75 cm^2 cell culture flasks.
Cells were cultured in 75 cm^2 flasks to 70-80% confluency. 45 μl Metafectene® Pro was diluted in 900 ρl Ham's F-12/DMEM (1/1; v/v) and incubated for 20 min at room temperature. 9 μg plasmid containing DNA of CLR fused to EYFP and 3 μg plasmid containing DNA of RAMP2 fused to ECFP were dissolved in 900 μl Ham's F-12/DMEM (1/1; v/v). The plasmid solution was mixed with the Metafectene® Pro solution and incubated for 25 min at room temperature. Medium was removed from the cells and replaced by 6 m1 Ham's F-12/DMEM (1/1; v/v) containing 15% FCS. After addition of transfection solution the cells were incubated for 3 h under humidified atmosphere at 37° C. and 5% CO2. For the second transfection 45 μl Metafectene® Pro was diluted in 900 μl Ham's F-12/DMEM (1/1; v/v) and incubated for 20 min at room temperature. 12 μg of pGL4.29[Luc2P/CRE/Hygro] plasmid containing DNA for the luciferase reporter gene luc2P (with CRE promotor region) were dissolved in 900 μl Ham's F-12/DMEM (1/1; v/v). The plasmid solution was mixed with the Metafectene® Pro solution and incubated for 25 min at room temperature. Medium was removed from the cells and replaced by 6 m1 Ham's F-12/DMEM (1/1; v/v) containing 15% FCS. After addition of transfection solution, the cells were incubated under humidified atmosphere at 37° C. and 5% CO2 over night.
For coating of 96-well-plates, 50 μl of a poly-D-lysine solution in DPBS (0.1 mg/ml) were pipetted in each well and incubated for 40 min. After removal of poly-D-lysine, each well was washed with 50 μl DPBS. Transiently transfected cells were detached from the cell culture flask by removal of the medium, 2-fold washing with 5 m1 DPBS and resuspending in 40 m1 Ham's F-12/DMEM (1/1; v/v) containing 15% FCS. 90,000 to 120,000 cells in 150 μl Ham's F-12/DMEM (1/1; v/v) containing 15% FCS were seeded per well and the plates were incubated under humidified atmosphere at 37° C. and 5% CO2 over night.
For each ligand, a serial dilution with eight different concentrations was prepared using Ham's F^12/DMEM (1/1; v/v). Before stimulation, the medium on the cells was replaced by 100 μl Ham's F^12/DMEM (1/1; v/v) and the plates were incubated for 1 h under humidified atmosphere at 37° C. and 5% CO2. For stimulation, the medium was removed and the cells were incubated for 3 h in 80 μl of ligand-solution under humidified atmosphere at 37° C. and 5% CO2. In addition 80 μl of a 5 μM forskolin solution in Ham's F-12/DMEM (1/1; v/v) was used as a positive control and 80 μl of Ham's F-12/DMEM (1/1; v/v) as a negative control. Each concentration and the controls were tested as triplicates.
After 3 h of stimulation, the solutions were removed and the cells were washed with 50 μl of Ham's F-12/DMEM (1/1; v/v) perwell. After 10 m incubation in 30 μl of Ham's F-12/DMEM (1/1; v/v) at room temperature, 30 μl of luciferase-solution (ONE-Glo™ Luciferase Assay System) was added and the luminescence was directly measured using an Infinite M200 (Tecan).
Data analysis of the luminescence measurement was carried out with GraphPad Prism 5. Therefore, the measured luminescence values of each plate were first corrected on the base of the respective average of forskolin stimulation. Afterwards they were normalized to [G14]ADM(14-52), which was used as standard peptide in every assay. After correction and normalization, data was analyzed using non-linear regression giving dose-response curves for each tested ligand.
For orientation: Reporter assays use an easily measured gene product as a stand-in for the process of interest.

For five molecules, Emax and EC50 results are on record in US20220387608A1, “ADRENOMEDULLIN-ANALOGUES FOR LONG-TERM STABILIZATION AND THEIR USE” (Bayer Aktiengesellschaft, priority 2019, published 2022).

Broadly, the Emax is the size of the effect at its maximum, as opposed to the concentration needed. What is called EC50 is the concentration that produces a half-maximal response. A high value points to weaker potency.

Each structure is given as a SMILES string. Positions of bridges follow the written chain, without caps; N, C: chain ends. Non-standard residues stand in square brackets, D forms with d. Residues, ends and D or L forms follow the SMILES beside them. *: point of attachment. C18 diacid = O=C(O)CCCCCCCCCCCCCCCCC(=O)*; PEG5 = NCCOCCOCCOCCOCCOCCC(=O)O; PEG4 = NCCOCCOCCOCCOCCC(=O)O; PEG3 = NCCOCCOCCOCCC(=O)O; Dap = NC[C@H](N)C(=O)O

T1 sequence (Q16602 23-461): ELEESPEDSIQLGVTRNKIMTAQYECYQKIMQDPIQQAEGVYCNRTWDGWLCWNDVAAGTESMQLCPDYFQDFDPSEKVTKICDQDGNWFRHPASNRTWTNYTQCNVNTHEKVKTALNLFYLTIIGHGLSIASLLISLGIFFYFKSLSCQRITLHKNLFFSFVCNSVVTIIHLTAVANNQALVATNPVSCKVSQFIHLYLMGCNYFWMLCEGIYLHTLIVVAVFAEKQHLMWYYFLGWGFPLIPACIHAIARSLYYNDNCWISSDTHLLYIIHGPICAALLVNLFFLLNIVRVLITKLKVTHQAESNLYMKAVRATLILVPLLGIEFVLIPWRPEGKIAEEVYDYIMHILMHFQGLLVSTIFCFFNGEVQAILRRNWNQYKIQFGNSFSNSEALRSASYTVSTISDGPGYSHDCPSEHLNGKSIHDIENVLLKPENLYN
T1 sequence (O60895 43-175): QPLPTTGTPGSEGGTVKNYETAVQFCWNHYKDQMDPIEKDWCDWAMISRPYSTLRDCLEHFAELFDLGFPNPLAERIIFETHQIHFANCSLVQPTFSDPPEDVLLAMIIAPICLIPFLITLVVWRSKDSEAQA

In turn, `CC[C@H](C)[C@H](NC(=O)[C@H](CCC(N)=O)NC(=O)[C@H](Cc1c[nH]cn1)NC(=O)[C@H](C)NC(=O)[C@H](CC(C)C)NC(=O)[C@H](CCCCN)NC(=O)[C@H](CCC(N)=O)NC(=O)[C@@H](NC(=O)[C@@H](NC(=O)[C@@H]1CSSC[C@H](NC(=O)CNC(=O)CN)C(=O)N[C@@H](CCCNC(=N)N)C(=O)N[C@@H](Cc2ccccc2)C(=O)NCC(=O)N[C@@H]([C@@H](C)O)C(=O)N1)[C@@H](C)O)C(C)C)C(=O)N[C@@H](Cc1ccc(O)cc1)C(=O)N[C@@H](CCC(N)=O)C(=O)N[C@@H](Cc1ccccc1)C(=O)N[C@H](C(=O)N[C@@H](CC(=O)O)C(=O)NCCOCCOCCOCCOCCC(=O)N[C@H](C(=O)N[C@@H](C)C(=O)N1CCC[C@H]1C(=O)N[C@@H](CCCNC(=N)N)C(=O)N[C@@H](CO)C(=O)N[C@@H](CCCCN)C(=O)N[C@H](C(=O)N[C@@H](CO)C(=O)N1CCC[C@H]1C(=O)N[C@@H](CCC(N)=O)C(=O)NCC(=O)N[C@@H](Cc1ccc(O)cc1)C(N)=O)[C@@H](C)CC)C(C)C)[C@@H](C)O` [Example 10, ((4R,7S,13S,16S,19R)-19-(2-(2-aminoacetamido)acetamido)-13-benzyl-16-(3-guanidinopropyl)-7-((R)-1-hydroxyethyl)-6,9,12,15,18-pentaoxo-1,2-dithia-5,8,11,14,17-pentaazacycloicosane-4-carbonyl)-L-threonyl-ADM(23-35)-(1-(λ^2-azaneyl)-3,6,9,12-tetraoxapentadecan-15-oyl)-L-valyl-ADM(42-52)] (H-GGCRFGTCTVQKLAHQIYQFTD[PEG4]VAPRSKISPQGY-NH2; disulfide 3-8) gave an Emax of 77 ± 3% and an EC50 of 81 nM.
The like results for `CC[C@H](C)[C@H](NC(=O)[C@H](CCC(N)=O)NC(=O)[C@H](Cc1c[nH]cn1)NC(=O)[C@H](C)NC(=O)[C@H](CC(C)C)NC(=O)[C@H](CCCCN)NC(=O)[C@H](CCC(N)=O)NC(=O)[C@@H](NC(=O)[C@@H](NC(=O)[C@@H]1CSSC[C@H](NC(=O)CNC(=O)CN)C(=O)N[C@@H](CCCNC(=N)N)C(=O)N[C@@H](Cc2ccccc2)C(=O)NCC(=O)N[C@@H]([C@@H](C)O)C(=O)N1)[C@@H](C)O)C(C)C)C(=O)N[C@@H](Cc1ccc(O)cc1)C(=O)N[C@@H](CCC(N)=O)C(=O)N[C@@H](Cc1ccccc1)C(=O)N[C@H](C(=O)N[C@@H](CC(=O)O)C(=O)NCCOCCOCCOCCOCCOCCC(=O)N[C@@H](C)C(=O)N1CCC[C@H]1C(=O)N[C@@H](CCCNC(=N)N)C(=O)N[C@@H](CO)C(=O)N[C@@H](CCCCN)C(=O)N[C@H](C(=O)N[C@@H](CO)C(=O)N1CCC[C@H]1C(=O)N[C@@H](CCC(N)=O)C(=O)NCC(=O)N[C@@H](Cc1ccc(O)cc1)C(N)=O)[C@@H](C)CC)[C@@H](C)O` [Example 12, ((4R,7S,13S,16S,19R)-19-(2-(2-aminoacetamido)acetamido)-13-benzyl-16-(3-guanidinopropyl)-7-((R)-1-hydroxyethyl)-6,9,12,15,18-pentaoxo-1,2-dithia-5,8,11,14,17-pentaazacycloicosane-4-carbonyl)-L-threonyl-ADM(23-35)-(1-(λ^2-azaneyl)-3,6,9,12,15-pentaoxaoctadecan-18-oyl)-L-alanyl-ADM(43-52)] (H-GGCRFGTCTVQKLAHQIYQFTD[PEG5]APRSKISPQGY-NH2; disulfide 3-8) were, in that order, 79 ± 5% and 431 nM.
The matching figures for `CC[C@H](C)[C@H](NC(=O)[C@H](CCC(N)=O)NC(=O)[C@H](Cc1c[nH]cn1)NC(=O)[C@H](C)NC(=O)[C@H](CC(C)C)NC(=O)[C@H](CCCCN)NC(=O)[C@H](CCC(N)=O)NC(=O)[C@@H](NC(=O)[C@@H](NC(=O)[C@@H]1CCC(=O)NC[C@H](NC(=O)CNC(=O)[C@@H](N)CCCCNC(=O)CCCCCCCCCCCCCCCCC(=O)O)C(=O)N[C@@H](CCCNC(=N)N)C(=O)N[C@@H](Cc2ccccc2)C(=O)NCC(=O)N[C@@H]([C@@H](C)O)C(=O)N1)[C@@H](C)O)C(C)C)C(=O)N[C@@H](Cc1ccc(O)cc1)C(=O)N[C@@H](CCC(N)=O)C(=O)N[C@@H](Cc1ccccc1)C(=O)N[C@H](C(=O)NCCOCCOCCOCCC(=O)N[C@@H](CC(=O)O)C(=O)N[C@@H](CC(N)=O)C(=O)N[C@H](C(=O)N[C@@H](C)C(=O)N1CCC[C@H]1C(=O)N[C@H]1CCCCNC(=O)C[C@@H](C(=O)N2CCC[C@H]2C(=O)N[C@@H](CCC(N)=O)C(=O)NCC(=O)N[C@@H](Cc2ccc(O)cc2)C(N)=O)NC(=O)[C@H]([C@@H](C)CC)NC(=O)[C@H](CCCCN)NC(=O)[C@H](CO)NC1=O)C(C)C)[C@@H](C)O` [Example 17] (H-K(C18 diacid)G[Dap]RFGTETVQKLAHQIYQFT[PEG3]DNVAPKSKIDPQGY-NH2; lactam 3-8, 28-32): 77 ± 3% and 5 nM.
The like results for `CC[C@H](C)[C@H](NC(=O)[C@H](CCC(N)=O)NC(=O)[C@H](Cc1c[nH]cn1)NC(=O)[C@H](C)NC(=O)[C@H](CC(C)C)NC(=O)[C@H](CCCCN)NC(=O)[C@H](CCC(N)=O)NC(=O)[C@@H](NC(=O)[C@@H](NC(=O)[C@@H]1CSSC[C@H](NC(=O)CNC(=O)CN)C(=O)N[C@@H](CCCNC(=N)N)C(=O)N[C@@H](Cc2ccccc2)C(=O)NCC(=O)N[C@@H]([C@@H](C)O)C(=O)N1)[C@@H](C)O)C(C)C)C(=O)N[C@@H](Cc1ccc(O)cc1)C(=O)N[C@@H](CCC(N)=O)C(=O)N[C@@H](Cc1ccccc1)C(=O)N[C@H](C(=O)NCCOCCOCCOCCOCCC(=O)N[C@@H](CC(N)=O)C(=O)N[C@H](C(=O)N[C@@H](C)C(=O)N1CCC[C@H]1C(=O)N[C@@H](CCCNC(=N)N)C(=O)N[C@@H](CO)C(=O)N[C@@H](CCCCN)C(=O)N[C@H](C(=O)N[C@@H](CO)C(=O)N1CCC[C@H]1C(=O)N[C@@H](CCC(N)=O)C(=O)NCC(=O)N[C@@H](Cc1ccc(O)cc1)C(N)=O)[C@@H](C)CC)C(C)C)[C@@H](C)O` [Example 8, ((4R,7S,13S,16S,19R)-19-(2-(2-aminoacetamido)acetamido)-13-benzyl-16-(3-guanidinopropyl)-7-((R)-1-hydroxyethyl)-6,9,12,15,18-pentaoxo-1,2-dithia-5,8,11,14,17-pentaazacycloicosane-4-carbonyl)-L-threonyl-ADM(23-34)-(1-(λ^2-azaneyl)-3,6,9,12-tetraoxapentadecan-15-oyl)-L-asparagyl-ADM(41-52)] (H-GGCRFGTCTVQKLAHQIYQFT[PEG4]NVAPRSKISPQGY-NH2; disulfide 3-8) were, in that order, 95 ± 3% and 16 nM.
Consider `CC[C@H](C)[C@H](NC(=O)[C@H](CCC(N)=O)NC(=O)[C@H](Cc1c[nH]cn1)NC(=O)[C@H](C)NC(=O)[C@H](CC(C)C)NC(=O)[C@H](CCCCN)NC(=O)[C@H](CCC(N)=O)NC(=O)[C@@H](NC(=O)[C@@H](NC(=O)[C@@H]1CSSC[C@H](NC(=O)CNC(=O)CN)C(=O)N[C@@H](CCCNC(=N)N)C(=O)N[C@@H](Cc2ccccc2)C(=O)NCC(=O)N[C@@H]([C@@H](C)O)C(=O)N1)[C@@H](C)O)C(C)C)C(=O)N[C@@H](Cc1ccc(O)cc1)C(=O)N[C@@H](CCC(N)=O)C(=O)N[C@@H](Cc1ccccc1)C(=O)N[C@H](C(=O)N[C@@H](CC(=O)O)C(=O)N[C@@H](CCCCN)C(=O)N[C@@H](CC(=O)O)C(=O)N[C@@H](CCCCN)C(=O)N[C@@H](CC(=O)O)C(=O)N[C@@H](CC(N)=O)C(=O)N[C@H](C(=O)N[C@@H](C)C(=O)N1CCC[C@H]1C(=O)N[C@@H](CCCNC(=N)N)C(=O)N[C@@H](CO)C(=O)N[C@@H](CCCCN)C(=O)N[C@H](C(=O)N[C@@H](CO)C(=O)N1CCC[C@H]1C(=O)N[C@@H](CCC(N)=O)C(=O)NCC(=O)N[C@@H](Cc1ccc(O)cc1)C(N)=O)[C@@H](C)CC)C(C)C)[C@@H](C)O` [Reference, reference compound], for which the Emax was 99 ± 1% and the EC50 came out at 3.5 nM.
